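Step 1: Grow cells in 96-well plates. Step 2: Expose to compound for 48 hours at 5 concentrations. Step 3: Interpolate endpoints linearly; if unreached, use highest concentration. Definition used: TGI = concentration required for complete inhibition of growth.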 Where a SMILES comes first, the peptide text is derived from it. [ ]: non-standard residue; d: D form. The star is where a group is joined. Hyp = O=C(O)[CH]1C[CH](O)CN1; Cbz = O=C(OCc1ccccc1)*

From PubChem BioAssay (NCI) come the findings set out here.

Some test systems named below: HL-60(TB) leukemia; SF-268 CNS; SW-620 colon; A549 NSCLC; NCI-H23 lung; HCC-2998 colon; SNB-75 CNS; NCI-H460 lung; RPMI-8226 leukemia; SK-MEL-5 melanoma; MDA-MB-231 breast; CCRF-CEM leukemia; MALME-3M melanoma; HOP-62 NSCLC; UACC-257 melanoma; 786-0 renal; IGROV1 ovarian.
What all share (experiment): NCI-60 cell line screen, 48 h

In the case of `O=C1NC(=O)C23C(=O)NC(=O)C12C1C=CC3CC1` (stereo not given), the TGI in the assay with HL-60(TB) leukemia, in the assay on SF-268 CNS, in the assay on SW-620 colon, in the assay on A549 NSCLC, with NCI-H23 lung and in the assay with HCC-2998 colon was greater than 10 µM in each case. The TGI in the assay on SNB-75 CNS, in the assay on NCI-H460 lung, with RPMI-8226 leukemia, in the assay with SK-MEL-5 melanoma, in the assay with MDA-MB-231 breast and in the assay with CCRF-CEM leukemia was greater than 10 µM throughout. For the same compound, the TGI in the assay with MALME-3M melanoma, with HOP-62 NSCLC, with UACC-257 melanoma, in the assay on 786-0 renal and in the assay with IGROV1 ovarian was greater than 10 µM each time.

Regarding `CCCCCCCCCc1cc(=O)c2c(O)cc(O)cc2o1`, the TGI in the assay on HL-60(TB) leukemia is 32.3 µM; in the assay on SF-268 CNS, 14.5 µM; in the assay with SW-620 colon, 78.1 µM; in the assay with A549 NSCLC, 35.5 µM; with NCI-H23 lung, 34.2 µM; in the assay on HCC-2998 colon, 35.8 µM. Besides, the TGI was 33.2 µM in the assay with SNB-75 CNS; 50.6 µM with NCI-H460 lung; 22.3 µM in the assay on RPMI-8226 leukemia; 37.6 µM in the assay on SK-MEL-5 melanoma; greater than 100 µM in the assay with MDA-MB-231 breast; 44.7 µM with CCRF-CEM leukemia. Also, the TGI with MALME-3M melanoma is 32 µM; in the assay with HOP-62 NSCLC, 28.5 µM; with UACC-257 melanoma it was 35.5 µM; in the assay with 786-0 renal it was 42.8 µM; with IGROV1 ovarian, 32.4 µM.

`COC(=O)C(Cc1ccccc1)NP(=O)(O)OCC1OC(n2ccc(N)nc2=O)C(O)C1O` (stereo not given): the TGI in the assay on HL-60(TB) leukemia, in the assay with SF-268 CNS, in the assay on SW-620 colon, in the assay on A549 NSCLC, with NCI-H23 lung and with HCC-2998 colon was greater than 100 µM each time. Besides, the TGI with SNB-75 CNS, in the assay with NCI-H460 lung, in the assay on RPMI-8226 leukemia, with SK-MEL-5 melanoma, in the assay with MDA-MB-231 breast and in the assay on CCRF-CEM leukemia was greater than 100 µM in each case. For the same compound, the TGI in the assay with MALME-3M melanoma, in the assay with HOP-62 NSCLC, in the assay with UACC-257 melanoma, in the assay on 786-0 renal and in the assay on IGROV1 ovarian was greater than 100 µM in each case.

Take `Cc1cc(=O)[nH]c(S(=O)(=O)NC(=O)Nc2cccc(Cl)c2)n1`: the TGI is greater than 31.2 µM in the assay with HL-60(TB) leukemia; greater than 100 µM in the assay on SF-268 CNS; greater than 100 µM with SW-620 colon; greater than 100 µM with A549 NSCLC; greater than 100 µM with NCI-H23 lung; greater than 100 µM in the assay with HCC-2998 colon. The TGI with SNB-75 CNS, with NCI-H460 lung, with RPMI-8226 leukemia, in the assay with SK-MEL-5 melanoma, in the assay with MDA-MB-231 breast and with CCRF-CEM leukemia was greater than 100 µM each time. The TGI in the assay on MALME-3M melanoma, in the assay with HOP-62 NSCLC, in the assay on UACC-257 melanoma, with 786-0 renal and in the assay with IGROV1 ovarian was greater than 100 µM each time.

Consider `CNC(=O)OCC1=C(COC(=O)NC)CN(c2ccc(OC)cc2)C1`, for which the TGI in the assay on HL-60(TB) leukemia, with SF-268 CNS, in the assay on SW-620 colon, with A549 NSCLC, in the assay with NCI-H23 lung and in the assay with HCC-2998 colon was greater than 100 µM throughout. Moreover, the TGI in the assay with SNB-75 CNS, in the assay on NCI-H460 lung, with RPMI-8226 leukemia, in the assay on SK-MEL-5 melanoma, in the assay on MDA-MB-231 breast and in the assay on CCRF-CEM leukemia was greater than 100 µM in each case. Further, the TGI with MALME-3M melanoma, in the assay with HOP-62 NSCLC, with UACC-257 melanoma, in the assay on 786-0 renal and in the assay with IGROV1 ovarian was greater than 100 µM each time.

Consider `COc1cc([N+](=O)[O-])cc2c1NC(=O)C2(C)SC` (stereo not given), for which the TGI was 47.2 µM in the assay with HL-60(TB) leukemia; greater than 100 µM with SF-268 CNS; greater than 100 µM in the assay on SW-620 colon; greater than 100 µM in the assay with A549 NSCLC; greater than 100 µM in the assay with NCI-H23 lung; greater than 100 µM in the assay with HCC-2998 colon. Moreover, the TGI in the assay with SNB-75 CNS is 90.6 µM; in the assay on NCI-H460 lung, greater than 100 µM; in the assay on RPMI-8226 leukemia it was greater than 100 µM; in the assay with SK-MEL-5 melanoma it was greater than 100 µM; with MDA-MB-231 breast it was greater than 100 µM; in the assay on CCRF-CEM leukemia, greater than 100 µM. Further, the TGI in the assay with MALME-3M melanoma, in the assay with HOP-62 NSCLC, in the assay with UACC-257 melanoma, with 786-0 renal and in the assay with IGROV1 ovarian was greater than 100 µM in each case.

With `CCC12CN(C(=O)OC)C3C(Br)C1CCC(=O)C32` (stereo not given), the TGI in the assay with HL-60(TB) leukemia, in the assay with SF-268 CNS, with SW-620 colon, with A549 NSCLC, with NCI-H23 lung and in the assay on HCC-2998 colon was greater than 100 µM each time. Further, the TGI with SNB-75 CNS, in the assay on NCI-H460 lung, with RPMI-8226 leukemia, in the assay with SK-MEL-5 melanoma, with MDA-MB-231 breast and with CCRF-CEM leukemia was greater than 100 µM throughout. Further, the TGI in the assay with MALME-3M melanoma, in the assay with HOP-62 NSCLC, in the assay on UACC-257 melanoma, with 786-0 renal and in the assay with IGROV1 ovarian was greater than 100 µM throughout.

For `CN(C)c1ccc(C2=C([O-])c3cc(-[n+]4ccccc4)ccc3C2=O)cc1`, the TGI with HL-60(TB) leukemia, in the assay with SF-268 CNS, in the assay with SW-620 colon, with A549 NSCLC, in the assay on NCI-H23 lung and with HCC-2998 colon was greater than 100 µM throughout. Besides, the TGI in the assay on SNB-75 CNS, in the assay with NCI-H460 lung, in the assay on RPMI-8226 leukemia, in the assay with SK-MEL-5 melanoma, in the assay on MDA-MB-231 breast and with CCRF-CEM leukemia was greater than 100 µM each time. The TGI in the assay with MALME-3M melanoma, in the assay on HOP-62 NSCLC, in the assay with UACC-257 melanoma, with 786-0 renal and in the assay on IGROV1 ovarian was greater than 100 µM in each case.

With `NC(=O)CNC(=O)C1CC(O)CN1C(=O)C1CCCN1C(=O)OCc1ccccc1` (stereo not drawn) (Cbz-Pro-[Hyp]-Gly-NH2; configuration not given here), the TGI with HL-60(TB) leukemia, in the assay on SF-268 CNS, with SW-620 colon, in the assay with A549 NSCLC, in the assay on NCI-H23 lung and in the assay with HCC-2998 colon was greater than 100 µM each time. Further, the TGI in the assay with SNB-75 CNS, with NCI-H460 lung, with RPMI-8226 leukemia, with SK-MEL-5 melanoma, in the assay on MDA-MB-231 breast and in the assay on CCRF-CEM leukemia was greater than 100 µM throughout. The TGI in the assay with MALME-3M melanoma, with HOP-62 NSCLC, with UACC-257 melanoma, in the assay on 786-0 renal and in the assay with IGROV1 ovarian was greater than 100 µM each time.

Regarding `N#CC(C#N)=C(N)/C(C#N)=C/c1ccc(O)c(O)c1`, the TGI in the assay with HL-60(TB) leukemia is greater than 83.3 µM; with SF-268 CNS it was greater than 100 µM; in the assay on SW-620 colon, greater than 100 µM; in the assay on A549 NSCLC, greater than 100 µM; in the assay on NCI-H23 lung it was greater than 100 µM; in the assay with HCC-2998 colon, greater than 100 µM. The TGI in the assay on SNB-75 CNS, in the assay on NCI-H460 lung, in the assay with RPMI-8226 leukemia, with SK-MEL-5 melanoma, in the assay on MDA-MB-231 breast and in the assay with CCRF-CEM leukemia was greater than 100 µM throughout. Besides, the TGI in the assay with MALME-3M melanoma, with HOP-62 NSCLC, in the assay on UACC-257 melanoma, with 786-0 renal and in the assay with IGROV1 ovarian was greater than 100 µM each time.
